Test system: not listed separately
Experiment: Human metabolic stability half-life assay
Format: in vitro ADME
Details: liver microsomes, pH 7.4, human liver microsomes, 0.5 μM compound, NADPH, 45-minute time course, read-out: HLM t1/2
Description: Metabolic Stability Half-Life Panel

SMILES | half-life at 0.5 μM
NC(=O)[C@@H](CCC(F)(F)F)[C@@H](CCC(F)(F)F)C(=O)N[C@H]1CN(c2cccc(C3CC3)c2)c2cccc(Cl)c2NC1=O [Example 1, (2R,3S)—N-((3S)-6-Chloro-1-(3-cyclopropylphenyl)-4-oxo-2,3,4,5-tetrahydro-1H-1,5-benzodiazepin-3-yl)-2,3-bis(3,3,3-trifluoropropyl)succinamide] | ≥ 31 min
NC(=O)[C@@H](CCC(F)(F)F)[C@@H](CCC(F)(F)F)C(=O)N[C@H]1CN(c2cccc(Cl)c2)c2ccccc2NC1=O [Example 3, (2R,3S)—N-((3S)-1-(3-Chlorophenyl)-4-oxo-2,3,4,5-tetrahydro-1H-1,5-benzodiazepin-3-yl)-2,3-bis(3,3,3-trifluoropropyl)succinamide] | ≥ 31 min
NC(=O)[C@@H](CCC(F)(F)F)[C@@H](CCC(F)(F)F)C(=O)N[C@H]1CN(c2cccc(C3CC3)c2)c2ccccc2NC1=O [Example 5, (2R,3S)—N-((3S)-1-(3-Cyclopropylphenyl)-4-oxo-2,3,4,5-tetrahydro-1H-1,5-benzodiazepin-3-yl)-2,3-bis(3,3,3-trifluoropropyl)succinamide] | ≥ 31 min
NC(=O)[C@@H](CCC(F)(F)F)[C@@H](CCC(F)(F)F)C(=O)N[C@H]1CN(c2cccc(Cl)c2)c2cccc(C3CC3)c2NC1=O [Example 7, (2R,3S)—N-((3S)-1-(3-Chlorophenyl)-6-cyclopropyl-4-oxo-2,3,4,5-tetrahydro-1H-1,5-benzodiazepin-3-yl)-2,3-bis(3,3,3-trifluoropropyl)succinamide] | ≥ 31 min
NC(=O)[C@@H](CC1CC1)[C@@H](CCC(F)(F)F)C(=O)N[C@H]1CN(c2cccc(C3CC3)c2)c2cccc(F)c2NC1=O [Example 15, (2R,3S)-3-(Cyclopropylmethyl)-N-((3S)-1-(3-cyclopropylphenyl)-6-fluoro-4-oxo-2,3,4,5-tetrahydro-1H-1,5-benzodiazepin-3-yl)-2-(3,3,3-trifluoropropyl)succinamide] | ≥ 31 min
N#Cc1cccc(N2C[C@H](NC(=O)[C@H](CCC(F)(F)F)[C@H](CC3CC3)C(N)=O)C(=O)Nc3c(Cl)cccc32)c1 [Example 25, (2R,3S)—N-((3S)-6-Chloro-1-(3-cyanophenyl)-4-oxo-2,3,4,5-tetrahydro-1H-1,5-benzodiazepin-3-yl)-3-(cyclopropylmethyl)-2-(3,3,3-trifluoropropyl)succinamide] | ≥ 31 min

The next lines start with the values.

half-life at 0.5 μM | SMILES
≥ 31 min | N#Cc1ccccc1N1C[C@H](NC(=O)[C@H](CCC(F)(F)F)[C@H](CC2CC2)C(N)=O)C(=O)Nc2c(Cl)cccc21 [Example 26, (2R,3S)—N-((3S)-6-Chloro-1-(2-cyanophenyl)-4-oxo-2,3,4,5-tetrahydro-1H-1,5-benzodiazepin-3-yl)-3-(cyclopropylmethyl)-2-(3,3,3-trifluoropropyl)succinamide]
≥ 31 min | N#Cc1cc(F)cc(N2C[C@H](NC(=O)[C@H](CCC(F)(F)F)[C@H](CC3CC3)C(N)=O)C(=O)Nc3c(Cl)cccc32)c1 [Example 28, (2R,3S)—N-((3S)-6-Chloro-1-(3-cyano-5-fluorophenyl)-4-oxo-2,3,4,5-tetrahydro-1H-1,5-benzodiazepin-3-yl)-3-(cyclopropylmethyl)-2-(3,3,3-trifluoropropyl)succinamide]
≥ 31 min | NC(=O)[C@@H](CC1CC1)[C@@H](CCC(F)(F)F)C(=O)N[C@H]1CN(c2cccc(C3CC3)c2)c2cccc(Cl)c2NC1=O [Example 29, (2R,3S)—N-((3S)-6-Chloro-1-(3-cyclopropylphenyl)-4-oxo-2,3,4,5-tetrahydro-1H-1,5-benzodiazepin-3-yl)-3-(cyclopropylmethyl)-2-(3,3,3-trifluoropropyl)succinamide]
≥ 31 min | NC(=O)[C@@H](CCC(F)(F)F)[C@@H](CCC(F)(F)F)C(=O)N[C@H]1CN(c2cccc(Cl)c2)c2cccc(Cl)c2NC1=O [Example 31, (2R,3S)—N-((3S)-6-Chloro-1-(3-chlorophenyl)-4-oxo-2,3,4,5-tetrahydro-1H-1,5-benzodiazepin-3-yl)-2,3-bis(3,3,3-trifluoropropyl)succinamide]
≥ 31 min | NC(=O)[C@@H](CCC(F)(F)F)[C@@H](CCC(F)(F)F)C(=O)N[C@H]1CN(c2ccccn2)c2cccc(Cl)c2NC1=O [Example 33, (2R,3S)—N-((3S)-6-Chloro-4-oxo-1-(2-pyridinyl)-2,3,4,5-tetrahydro-1H-1,5-benzodiazepin-3-yl)-2,3-bis(3,3,3-trifluoropropyl)succinamide]
≥ 31 min | NC(=O)[C@@H](c1ccccc1)[C@@H](CCC(F)(F)F)C(=O)N[C@H]1CN(c2cccc(C(F)(F)F)n2)c2cccc(Cl)c2NC1=O [Example 34, (2R,3R)—N-((3S)-6-Chloro-4-oxo-1-(6-(trifluoromethyl)-2-pyridinyl)-2,3,4,5-tetrahydro-1H-1,5-benzodiazepin-3-yl)-3-phenyl-2-(3,3,3-trifluoropropyl)succinamide]
≥ 31 min | NC(=O)[C@@H](CCC(F)(F)F)[C@@H](CCC(F)(F)F)C(=O)N[C@H]1CN(c2ccccc2)c2ccc(F)cc2NC1=O [Example 37, (2R,3S)—N-((3S)-7-Fluoro-4-oxo-1-phenyl-2,3,4,5-tetrahydro-1H-1,5-benzodiazepin-3-yl)-2,3-bis(3,3,3-trifluoropropyl)succinamide]

Test system: human Notch 3
Experiment: Notch-CBF1 Transactivation Assay (Notch 3)
Format: cell-based
Details: HeLa cells co-transfected with truncated Notch 3 and CBF1 luciferase reporter; 18 hours incubation
Description: (§1) Notch-CBF1 Transactivation Assay
(§2) Table 12 denotes respective DNA quantity for the transfections.
(§3) Duplicates were used for each sample.

SMILES | IC50
N#Cc1ccccc1N1C[C@H](NC(=O)[C@H](CCC(F)(F)F)[C@H](CC2CC2)C(N)=O)C(=O)Nc2c(Cl)cccc21 [Example 26, (2R,3S)—N-((3S)-6-Chloro-1-(2-cyanophenyl)-4-oxo-2,3,4,5-tetrahydro-1H-1,5-benzodiazepin-3-yl)-3-(cyclopropylmethyl)-2-(3,3,3-trifluoropropyl)succinamide] | 46.2 nM

Test system: human Notch 1
Experiment: Notch-CBF1 Transactivation Assay (Notch 1)
Format: cell-based
Details: HeLa cells co-transfected with truncated Notch 1 and CBF1 luciferase reporter; 18 hours incubation
Description: as §1, §2, §3

SMILES | IC50
NC(=O)[C@@H](CCC(F)(F)F)[C@@H](CCC(F)(F)F)C(=O)N[C@H]1CN(c2ccc(Cl)cc2)c2ccccc2NC1=O [Example 4, (2R,3S)—N-((3S)-1-(4-Chlorophenyl)-4-oxo-2,3,4,5-tetrahydro-1H-1,5-benzodiazepin-3-yl)-2,3-bis(3,3,3-trifluoropropyl)succinamide] | 17.4 nM
NC(=O)[C@@H](CCC(F)(F)F)[C@@H](CCC(F)(F)F)C(=O)N[C@H]1CN(c2ccc(F)cc2)c2ccccc2NC1=O [Example 6, (2R,3S)—N-((3S)-1-(4-Fluorophenyl)-4-oxo-2,3,4,5-tetrahydro-1H-1,5-benzodiazepin-3-yl)-2,3-bis(3,3,3-trifluoropropyl)succinamide] | 13.9 nM
N#Cc1cccc(N2C[C@H](NC(=O)[C@H](CCC(F)(F)F)[C@H](CCC(F)(F)F)C(N)=O)C(=O)Nc3c(C(F)F)cccc32)c1 [Example 10, (2R,3S)—N-((3S)-1-(3-Cyanophenyl)-6-(difluoromethyl)-4-oxo-2,3,4,5-tetrahydro-1H-1,5-benzodiazepin-3-yl)-2,3-bis(3,3,3-trifluoropropyl)succinamide] | 12 nM
N#Cc1cccc(N2C[C@H](NC(=O)[C@H](CCC(F)(F)F)[C@H](CCC(F)(F)F)C(N)=O)C(=O)Nc3c(F)cccc32)c1 [Example 17, (2R,3S)—N-((3S)-1-(3-Cyanophenyl)-6-fluoro-4-oxo-2,3,4,5-tetrahydro-1H-1,5-benzodiazepin-3-yl)-2,3-bis(3,3,3-trifluoropropyl)succinamide] | 17.6 nM
N#Cc1cccc(N2C[C@H](NC(=O)[C@H](CCC(F)(F)F)[C@H](CCC(F)(F)F)C(N)=O)C(=O)Nc3c(Cl)cccc32)c1 [Example 23, (2R,3S)—N-((3S)-6-Chloro-1-(3-cyanophenyl)-4-oxo-2,3,4,5-tetrahydro-1H-1,5-benzodiazepin-3-yl)-2,3-bis(3,3,3-trifluoropropyl)succinamide] | 11.6 nM
N#Cc1cccc(N2C[C@H](NC(=O)[C@H](CCC(F)(F)F)[C@H](CC3CC3)C(N)=O)C(=O)Nc3c(Cl)cccc32)c1 [Example 25, (2R,3S)—N-((3S)-6-Chloro-1-(3-cyanophenyl)-4-oxo-2,3,4,5-tetrahydro-1H-1,5-benzodiazepin-3-yl)-3-(cyclopropylmethyl)-2-(3,3,3-trifluoropropyl)succinamide] | 14.6 nM
N#Cc1ccccc1N1C[C@H](NC(=O)[C@H](CCC(F)(F)F)[C@H](CC2CC2)C(N)=O)C(=O)Nc2c(Cl)cccc21 [Example 26, (2R,3S)—N-((3S)-6-Chloro-1-(2-cyanophenyl)-4-oxo-2,3,4,5-tetrahydro-1H-1,5-benzodiazepin-3-yl)-3-(cyclopropylmethyl)-2-(3,3,3-trifluoropropyl)succinamide] | 22.5 nM

— patent publication US9187434B2, “Substituted 1,5-benzodiazepinones compounds” (BRISTOL-MYERS SQUIBB COMPANY, priority 2012, dated 2015)
